From patent publication US20160047819A1, “METHOD FOR DIAGNOSING VAGINAL INFECTIONS” (priority 2013, published 2016)

System: bacterial vaginosis
Assay: Remission of bacterial vaginosis at V3 by Amsel's criteria and Gram stain Nugent score
Assay type: in vivo, human
Procedure: Also provided is a diagnostic kit for use characterizing at least one protein useful for identifying the status of a vaginal infection. The kit includes instructions for carrying out a method of diagnosing vaginal infection using mass spectrometry. The diagnostic method of the invention has been tested on vaginal fluids collected from women enrolled in a clinical study of 80 Belgian pre-menopausal, non-pregnant women, aged between 18 and 50 years were analyzed. At the screening visit (V1) diagnosis of health or BV was made using both Amsel's criteria and Gram stain Nugent scoring. Patients with Nugent score >3 and positive for at least 3 of 4 Amsel's criteria were considered positive for BV. According to this clinical evaluation, women were divided into 2 groups: healthy subjects (H), (n=41) and patients diagnosed for BV (n=39). Patients who were diagnosed for BV at the study visit V1 were included in a multicenter, double-blind, randomised, placebo-controlled study reported in U.S. Ser. No. 13/559,013 (EudraCT: 2009-011826-32), that was performed to compare the efficacy of different doses of rifaximin vaginal tablets versus placebo for the treatment of BV. These patients underwent a randomisation visit and were distributed into four treatment groups: • group A received 100 mg rifaximin vaginal tablet once daily for 5 days (n=10), • group B received 25 mg rifaximin vaginal tablet once daily for 5 days (n=10), • group C received 100 mg rifaximin vaginal tablet once daily for the first 2 days and placebo vaginal tablet for the remaining 3 days (n=9), and • group D received placebo vaginal tablet once daily for 5 days (n=10).
After 7 to 10 days from the end of the therapy a follow-up visit (V3) was performed. Remission was evaluated at V3 according to Amsel's criteria (<3) and Gram stain Nugent score ([…]).
(§1) Patients who were diagnosed for BV at the study visit V1 were included in a multicentre, double-blind, randomised, placebo-controlled study (EudraCT: 2009-011826-32), that was performed to compare the efficacy of different doses of rifaximin vaginal tablets versus placebo for the treatment of BV. The patients underwent a randomization visit and were distributed into 4 treatment groups: group A received 100 mg rifaximin vaginal tablet once daily for 5 days (n=10), group B received 25 mg rifaximin vaginal tablet once daily for 5 days (n=10), group C received 100 mg rifaximin vaginal tablet once daily for the first 2 days and placebo vaginal tablet for the remaining 3 days (n=9), group D received placebo vaginal tablet once daily for 5 days (n=10). Study medication was administered intra-vaginally at bedtime. After 7 to 10 days from the end of the therapy a follow-up visit (V3) was performed. Remission was evaluated at V3 according to Amsel's criteria (<3) and Gram stain Nugent score (≦3) (Table 1).
as §1, with “randomisation” for “randomization”

[1] = group A: 100 mg vaginal tablet once daily for 5 days (n=10)
[2] = group B: 25 mg vaginal tablet once daily for 5 days (n=10)
[3] = group C: 100 mg vaginal tablet once daily for 2 days, then placebo 3 days (n=9)

CO[C@H]1/C=C/O[C@@]2(C)Oc3c(C)c(O)c4c(O)c(c5c(nc6cc(C)ccn65)c4c3C2=O)NC(=O)/C(C)=C\C=C\[C@H](C)[C@H](O)[C@@H](C)[C@@H](O)[C@@H](C)[C@H](OC(C)=O)[C@@H]1C [rifaximin]
women in remission after treatment [1]: 2 women | women not in remission after treatment [1]: 8 women | women in remission after treatment [2]: 5 women | women not in remission after treatment [2]: 5 women | women in remission after treatment [3]: 4 women | women not in remission after treatment [3]: 5 women | women in remission (R), all treatment groups (of 39 BV-affected women after rifaximin/placebo treatment): 11 women
